Data: publication PMC10660337, “Mutate and Conjugate: A Method to Enable Rapid In-Cell Target Validation” (ACS Chemical Biology, 2023)
Entries after “also recorded” stand apart in the source; their conditions may differ.

How the values were obtained:
BRD4(1)^L94C = biological target: T1, BRD4(1)^L94C (Homo sapiens, UniProt O60885, L94C); assay: Fluorescent labeling of purified protein (CuAAC with TAMRA-PEG3-azide, in-gel fluorescence); assay type: binding; details: 50 μM probe, 10 μM protein, 4 h, 37 °C, then CuAAC 1 h
T1 construct: Characterization of His6-BRD4(1)L94C; made in house; host or cells: E. coli BL21 (DE3)
Procedure: When 28, 29, 30, and 42 were incubated with either purified BRD4(1)^L94C or BRD4(1)^WT and subjected to a copper(I)-catalyzed alkyne–azide click reaction (CuAAC) reaction with the fluorescent TAMRA-PEG3-azide dye, all clickable probes labeled the mutant protein and could be visualized using fluorescence imaging of a gel (Figure 6).
Figure 6 Clickable probes 28, 29, 30, and 42 covalently label BRD4(1)^L94C and undergo a subsequent CuAAC reaction with TAMRA-PEG3 azide to fluorescently label the protein, as shown by in-gel fluorescence imaging. Compounds 28, 29, 30, 41, and 42 (50 μM) were incubated with purified BRD4(1)^L94C or BRD4(1)^WT (10 μM) for 4 h at 37 °C, followed by CuAAC reaction with TAMRA-PEG3 azide for 1 h and separation of components by SDS-PAGE. For all compounds other than 30, only labeling of BRD4(1)^L94C was observed. […]
Fluorescent labeling of purified proteins
Assays were performed in 1.5 mL Eppendorf tubes at 37 °C, and gently shaken, unless otherwise stated.
The desired click probe (50 µM) was incubated with protein (10 µM) in protein LCMS buffer for 4 h, after which TAMRA-PEG3-Azide (200 µM), TCEP·HCl (1 mM), TBTA (100 µM), and CuSO4 (1 mM) were added and incubated for a further 1 h at room temperature in the dark. A 25 µL sample of the […]
(§1) reaction mix was taken and 8 µL of Lamelli buffer added, and the samples denatured by heating at 95 °C for 10 min. Samples were separated by gel electrophoresis on NuPAGE™ 4–12%, Bis-Tris precast polyacrylamide gels (Thermofisher). Following electrophoresis, gels were stained for 15 min with InstantBlueTM Coomasie® stain (Abcam), destained, and imaged using Bio-rad molecular imager.
Bio-rad Image Lab 6.1 was used to process the data. […]
InstantBlueTM Coomasie® stain (Abcam), destained, and imaged using Bio-rad molecular imager. […]
(§2) MEM media. Cells were then harvested and lysed using the previously described protocol above. […]

[1] = tested on: T2, BRD4(1)^L94C transiently expressed in HEK293T cells; assay: In-cell labeling by clickable probes, in-gel fluorescence; assay type: cell-based, human
T2 construct: the L94C mutation in the first bromodomain of BRD4 [BRD4(1)]; StrepII; expressed in transfected cells; host or cells: HEK293T
Procedure: (§3) To evaluate proteome-wide selectivity of the clickable probes, HEK293T cells transiently expressing BRD4(1)^L94C or BRD4(1)^WT were incubated with 10 μM of probes 28–30 and 42 for 1 h before the cells were lysed and the CuAAC reaction with TAMRA-PEG3-azide was conducted (Figure 7A). […]
as §1
(§4) Bio-rad Image Lab 6.1 was used to process the data.
(§5) In-cell target engagement
(§6) In-cell labeling by clickable probes
(§7) Transfected HEK293T cells at ~90% confluency were incubated for 1 h with a DMSO control (0.5% DMSO final concentration) or a click probe (10 µM, 0.5% DMSO final concentration) diluted in Opti- […]
Cells were then harvested and lysed using the previously described protocol above. The resulting cell lysates were diluted to 2 mg/mL using the previously described protocol above.
Cell lysates (50 µL) were then incubated with TAMRA-PEG3-Azide (200 µM), TCEP·HCl (2 mM), TBTA (200 µM), and CuSO4 (2 mM), for 1 h at rt in the dark. Samples were then prepared and separated by gel electrophoresis using the previously described protocol above.
Gels were imaged for fluorescence using Bio-rad molecular imager and then stained for 15 min with InstantBlueTM Coomasie® stain (Abcam), destained, and imaged using Bio-rad molecular imager.
Typically, the very bottom of the gel was removed prior to imaging due to residual, unreacted, TAMRA-PEG3-Azide, which would cause oversaturation and poor image quality. […]
as §2

[2] = tested on: endogenous proteins of HEK293T cells; assay: In-cell proteome-wide selectivity of clickable probes; assay type: cell-based, human; details: 10 μM probe, 1 h, live HEK293T cells expressing BRD4(1)^L94C or BRD4(1)^WT
Procedure: as §3, §1, §4, §5, §6, §7
Cells were then harvested and lysed using the previously described protocol above. The resulting cell lysates were diluted to 2 mg/mL using the previously described protocol above. […]
(§8) Gels were imaged for fluorescence using Bio-rad molecular imager and then stained for 15 min with InstantBlueTM Coomasie® stain (Abcam), destained, and imaged using Bio-rad molecular imager. […]

[3] = tested on: T2, BRD4(1)^L94C transiently expressed in HEK293T cells; assay: OXFBD04 (3) competition assay in cells; assay type: cell-based, human; details: OXFBD04 30 min preincubation, then probe 10 µM for 1 h
Procedure: Compound engagement with BRD4(1)^L94C was further validated by using an immunoprecipitation (IP) assay (Figure S22). Here, transfected HEK293T cells expressing StrepII-tagged BRD4(1)^L94C or StrepII-tagged BRD4(1)^WT were incubated with compound 42 before being lysed. The StrepII-tagged bromodomains were then pulled down using anti-StrepII antibodies, and the samples were separated by SDS-PAGE for analysis. […]
as §1, §4, §5
In-cell labeling by clickable probes […]
as §8
Transfected HEK293T cells at ~90% confluency were incubated for 30 min with a DMSO control or varying concentrations of OXFBD04 diluted in Opti-MEM media. […] Cells were then harvested, processed, and analysed using the previously described protocol above. […]

Labeling of purified BRD4(1)^L94C, in-gel fluorescence (BRD4(1)^L94C)	Structure (SMILES)	Dose dependence of in-cell BRD4(1)^L94C labeling ([1]; 1 to 10 μM)	Time dependence of in-cell BRD4(1)^L94C labeling ([1]; time course 0.5–4 h)	Proteome-wide selectivity / off-target binding to endogenous proteins [2]	BRD4(1)^L94C labeling by probe with increasing concentration of OXFBD04 (3) [3]	In-cell BRD4(1)^L94C engagement (fluorescent band ∼49 kDa) ([1]; 10 μM probe, 1 h)
high levels	C#CCOc1cc(NC(=O)C=C)ccc1N1CCCC1=O [Compound 42]	dose dependent	time-dependent	exquisite proteome-wide selectivity; also recorded: almost complete selectivity	decreased levels	
high levels	C#CCOc1ccc(-c2c(C)noc2NC(=O)C=C)cc1 [Compound 30]			low cellular selectivity	concomitant reduction	highest level of BRD4(1)^L94C engagement
